Measured values: PMC5379069, “A Pseudomonas T6SS effector recruits PQS-containing outer membrane vesicles for iron acquisition” (Nature Communications, 2017)

What was measured:
[1] = target: T1, TseF (PA2374) (Pseudomonas aeruginosa, UniProt Q9I1A5); test: ITC; also immobilized-PQS pull-down and fat western blot; Kd […] with Fe3+; format: binding
[2] = target: T1, TseF (PA2374); test: ITC; also fat western blot; format: binding

T1 sequence (Q9I1A5 entry or part of it): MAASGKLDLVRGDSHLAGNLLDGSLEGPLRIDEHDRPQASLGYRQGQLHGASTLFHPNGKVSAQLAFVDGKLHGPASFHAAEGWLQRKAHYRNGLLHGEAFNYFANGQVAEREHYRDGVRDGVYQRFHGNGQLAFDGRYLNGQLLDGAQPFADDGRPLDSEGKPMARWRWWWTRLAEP

**Q.** For `CCCCCCCc1[nH]c2ccccc2c(=O)c1O` [PQS, 2-heptyl-3-hydroxy-4-quinolone], which Kd [1] is on record?
**A.** 0.33 µM

**Q.** For `CCCCCCCc1cc(O)c2ccccc2n1` [HHQ, 4-hydroxy-2-heptylquinoline], which Kd [2] is on record?
**A.** 25.7 µM
